± gives the standard deviation of the averaged measurements.
Key:
Test in all cases: relative viability vs DMSO control (72 h) (fraction); higher = more viable cells
G401 = tested on: G401
Method in brief: (§1)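 Sarcoma cell lines were seeded in 384-well plates at densities chosen for 80–90% confluence, then 24 h later given 2.5 µl of serially diluted compound drawn from source plates spanning 10 mM to 0.0002 mM. They were held 72 h at 37 °C, 5% CO2, with 0.1% DMSO vehicle and a 5 µM positive control included. Relative viability was read with ATPLite as percent growth and averaged over up to triplicate wells. Rescaling placed full at 1 and none at 0.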

A204 = tested on: A204
Method in brief: as §1

SYO-1 = tested on: SYO-1
Method in brief: as §1

SW872 = tested on: SW872
Method in brief: as §1

KHOS-NP = tested on: KHOS-NP
Method in brief: as §1

MES-SA = tested on: MES-SA
Method in brief: as §1

HT1080 = tested on: HT1080
Method in brief: as §1

SK-LMS-1 = tested on: SK-LMS-1
Method in brief: as §1

HS729 = tested on: HS729
Method in brief: as §1

SW684 = tested on: SW684
Method in brief: as §1

SW1353 = tested on: SW1353
Method in brief: as §1

VA-ES-BJ = tested on: VA-ES-BJ
Method in brief: as §1

With `O=S(=O)(c1cccc2c(O)nccc12)N1CCCNCC1` [Hydroxyfasudil] the relative viability (G401; 0.00017 µM) was 1.02 ± 0.013, the relative viability (G401; 0.00051 µM) was 1.05 ± 0.015 and the relative viability (G401; 0.00152 µM) was 1.03 ± 0.02. For the same molecule, the relative viability (G401; 0.00457 µM) was 1.05 ± 0.0076, the relative viability (G401; 0.01372 µM) was 1.052 ± 0.0026 and the relative viability (G401; 0.04115 µM) was 1.05 ± 0.028. The relative viability (G401; 0.1235 µM) was 1.03 ± 0.015, the relative viability (G401; 0.3704 µM) was 1.03 ± 0.028 and the relative viability (G401; 1.111 µM) was 1.038 ± 0.0053. It also gave a relative viability (G401; 3.333 µM) of 1.01 ± 0.015, a relative viability (G401; 10 µM) of 0.944 ± 0.047 and a relative viability (A204; 0.00017 µM) of 1.08 ± 0.059. It also gave a relative viability (A204; 0.00051 µM) of 1.1 ± 0.06, a relative viability (A204; 0.00152 µM) of 1.12 ± 0.058 and a relative viability (A204; 0.00457 µM) of 1.1 ± 0.039. The relative viability (A204; 0.01372 µM) was 1.11 ± 0.041, the relative viability (A204; 0.04115 µM) was 1.11 ± 0.035 and the relative viability (A204; 0.1235 µM) was 1.11 ± 0.051. The relative viability (A204; 0.3704 µM) was 1.06 ± 0.058, the relative viability (A204; 1.111 µM) was 1.04 ± 0.02 and the relative viability (A204; 3.333 µM) was 1.05 ± 0.019. For the same molecule, the relative viability (A204; 10 µM) was 0.979 ± 0.055, the relative viability (SYO-1; 0.00017 µM) was 1 ± 0.047 and the relative viability (SYO-1; 0.00051 µM) was 0.996 ± 0.041. It also gave a relative viability (SYO-1; 0.00152 µM) of 0.97 ± 0.03, a relative viability (SYO-1; 0.00457 µM) of 0.993 ± 0.057 and a relative viability (SYO-1; 0.01372 µM) of 0.96 ± 0.06. The relative viability (SYO-1; 0.04115 µM) was 0.96 ± 0.024, the relative viability (SYO-1; 0.1235 µM) was 0.983 ± 0.033 and the relative viability (SYO-1; 0.3704 µM) was 0.894 ± 0.059. The relative viability (SYO-1; 1.111 µM) was 0.919 ± 0.02, the relative viability (SYO-1; 3.333 µM) was 0.904 ± 0.049 and the relative viability (SYO-1; 10 µM) was 0.846 ± 0.073. It also gave a relative viability (SW872; 0.00017 µM) of 1.12 ± 0.053, a relative viability (SW872; 0.00051 µM) of 1.11 ± 0.066 and a relative viability (SW872; 0.00152 µM) of 1.09 ± 0.078. For the same molecule, the relative viability (SW872; 0.00457 µM) was 1.1 ± 0.074, the relative viability (SW872; 0.01372 µM) was 1.07 ± 0.065 and the relative viability (SW872; 0.04115 µM) was 1.11 ± 0.053. It also gave a relative viability (SW872; 0.1235 µM) of 1.07 ± 0.061, a relative viability (SW872; 0.3704 µM) of 1.07 ± 0.048 and a relative viability (SW872; 1.111 µM) of 1.08 ± 0.045. It also gave a relative viability (SW872; 3.333 µM) of 1.03 ± 0.07, a relative viability (SW872; 10 µM) of 0.964 ± 0.042 and a relative viability (KHOS-NP; 0.00017 µM) of 1.09 ± 0.019. It also gave a relative viability (KHOS-NP; 0.00051 µM) of 1.09 ± 0.032, a relative viability (KHOS-NP; 0.00152 µM) of 1.086 ± 0.0061 and a relative viability (KHOS-NP; 0.00457 µM) of 1.1 ± 0.029. The relative viability (KHOS-NP; 0.01372 µM) was 1.09 ± 0.017, the relative viability (KHOS-NP; 0.04115 µM) was 1.1 ± 0.012 and the relative viability (KHOS-NP; 0.1235 µM) was 1.08 ± 0.0015. For the same molecule, the relative viability (KHOS-NP; 0.3704 µM) was 1.07 ± 0.016, the relative viability (KHOS-NP; 1.111 µM) was 1.07 ± 0.011 and the relative viability (KHOS-NP; 3.333 µM) was 1.049 ± 0.005. For the same molecule, the relative viability (KHOS-NP; 10 µM) was 1.04 ± 0.024, the relative viability (MES-SA; 0.00017 µM) was 0.981 ± 0.015 and the relative viability (MES-SA; 0.00051 µM) was 0.973 ± 0.031. It also gave a relative viability (MES-SA; 0.00152 µM) of 0.93 ± 0.015, a relative viability (MES-SA; 0.00457 µM) of 0.962 ± 0.024 and a relative viability (MES-SA; 0.01372 µM) of 0.944 ± 0.015. It also gave a relative viability (MES-SA; 0.04115 µM) of 0.92 ± 0.057, a relative viability (MES-SA; 0.1235 µM) of 0.96 ± 0.015 and a relative viability (MES-SA; 0.3704 µM) of 0.942 ± 0.036. The relative viability (MES-SA; 1.111 µM) was 0.934 ± 0.034, the relative viability (MES-SA; 3.333 µM) was 0.879 ± 0.031 and the relative viability (MES-SA; 10 µM) was 0.819 ± 0.018. It also gave a relative viability (HT1080; 0.00017 µM) of 1.1 ± 0.025, a relative viability (HT1080; 0.00051 µM) of 1.09 ± 0.053 and a relative viability (HT1080; 0.00152 µM) of 1.13 ± 0.014. The relative viability (HT1080; 0.00457 µM) was 1.06 ± 0.07, the relative viability (HT1080; 0.01372 µM) was 1.1 ± 0.029 and the relative viability (HT1080; 0.04115 µM) was 1.099 ± 0.0076. The relative viability (HT1080; 0.1235 µM) was 1.102 ± 0.01, the relative viability (HT1080; 0.3704 µM) was 1.1 ± 0.034 and the relative viability (HT1080; 1.111 µM) was 1.139 ± 0.0099. For the same molecule, the relative viability (HT1080; 3.333 µM) was 1.1 ± 0.034, the relative viability (HT1080; 10 µM) was 1.1 ± 0.015 and the relative viability (SK-LMS-1; 0.00017 µM) was 1.01 ± 0.016. The relative viability (SK-LMS-1; 0.00051 µM) was 1.06 ± 0.033, the relative viability (SK-LMS-1; 0.00152 µM) was 1.01 ± 0.058 and the relative viability (SK-LMS-1; 0.00457 µM) was 1.06 ± 0.074. For the same molecule, the relative viability (SK-LMS-1; 0.01372 µM) was 1.04 ± 0.037, the relative viability (SK-LMS-1; 0.04115 µM) was 1.06 ± 0.07 and the relative viability (SK-LMS-1; 0.1235 µM) was 0.983 ± 0.044. For the same molecule, the relative viability (SK-LMS-1; 0.3704 µM) was 0.99 ± 0.06, the relative viability (SK-LMS-1; 1.111 µM) was 0.99 ± 0.048 and the relative viability (SK-LMS-1; 3.333 µM) was 0.987 ± 0.07. For the same molecule, the relative viability (SK-LMS-1; 10 µM) was 0.869 ± 0.054, the relative viability (HS729; 0.00017 µM) was 1.087 ± 0.0065 and the relative viability (HS729; 0.00051 µM) was 0.998 ± 0.086. For the same molecule, the relative viability (HS729; 0.00152 µM) was 1.05 ± 0.032, the relative viability (HS729; 0.00457 µM) was 1.004 ± 0.0035 and the relative viability (HS729; 0.01372 µM) was 0.967 ± 0.016. For the same molecule, the relative viability (HS729; 0.04115 µM) was 0.969 ± 0.045, the relative viability (HS729; 0.1235 µM) was 0.97 ± 0.09 and the relative viability (HS729; 0.3704 µM) was 0.962 ± 0.036. For the same molecule, the relative viability (HS729; 1.111 µM) was 0.95 ± 0.022, the relative viability (HS729; 3.333 µM) was 0.887 ± 0.05 and the relative viability (HS729; 10 µM) was 0.853 ± 0.036. For the same molecule, the relative viability (SW684; 0.00017 µM) was 1.16 ± 0.084, the relative viability (SW684; 0.00051 µM) was 1.21 ± 0.013 and the relative viability (SW684; 0.00152 µM) was 1.2 ± 0.044. The relative viability (SW684; 0.00457 µM) was 1.16 ± 0.06, the relative viability (SW684; 0.01372 µM) was 1.16 ± 0.1 and the relative viability (SW684; 0.04115 µM) was 1.15 ± 0.12. For the same molecule, the relative viability (SW684; 0.1235 µM) was 1.14 ± 0.091, the relative viability (SW684; 0.3704 µM) was 1.15 ± 0.081 and the relative viability (SW684; 1.111 µM) was 1.12 ± 0.035. It also gave a relative viability (SW684; 3.333 µM) of 1.06 ± 0.04, a relative viability (SW684; 10 µM) of 1.02 ± 0.045 and a relative viability (SW1353; 0.00017 µM) of 1.06 ± 0.02. The relative viability (SW1353; 0.00051 µM) was 1.07 ± 0.017, the relative viability (SW1353; 0.00152 µM) was 1.05 ± 0.028 and the relative viability (SW1353; 0.00457 µM) was 1.07 ± 0.025. It also gave a relative viability (SW1353; 0.01372 µM) of 1.01 ± 0.044, a relative viability (SW1353; 0.04115 µM) of 1.01 ± 0.035 and a relative viability (SW1353; 0.1235 µM) of 1.038 ± 0.01. It also gave a relative viability (SW1353; 0.3704 µM) of 1.036 ± 0.0021, a relative viability (SW1353; 1.111 µM) of 0.96 ± 0.037 and a relative viability (SW1353; 3.333 µM) of 0.913 ± 0.075. The relative viability (SW1353; 10 µM) was 0.775 ± 0.047, the relative viability (VA-ES-BJ; 0.00017 µM) was 1.07 ± 0.04 and the relative viability (VA-ES-BJ; 0.00051 µM) was 1.1 ± 0.016. It also gave a relative viability (VA-ES-BJ; 0.00152 µM) of 1.11 ± 0.018, a relative viability (VA-ES-BJ; 0.00457 µM) of 1.08 ± 0.059 and a relative viability (VA-ES-BJ; 0.01372 µM) of 1.07 ± 0.027. For the same molecule, the relative viability (VA-ES-BJ; 0.04115 µM) was 1.061 ± 0.0073, the relative viability (VA-ES-BJ; 0.1235 µM) was 1.06 ± 0.021 and the relative viability (VA-ES-BJ; 0.3704 µM) was 1.09 ± 0.021. The relative viability (VA-ES-BJ; 1.111 µM) was 1.01 ± 0.029, the relative viability (VA-ES-BJ; 3.333 µM) was 1.01 ± 0.043 and the relative viability (VA-ES-BJ; 10 µM) was 0.998 ± 0.02.

Source: the supplement of paper PMC10883282
